Here are results for 10 compounds from patent US20080221021A1, “Novel Corticotropin-Releasing Factor Receptor 1 (Crfr1) Agonist” (Max-Planck-Gesellschaft Zur Forderung Der, priority 2004, published 2008).

“Also recorded” adds a separate entry of the source. Where no end group is shown, it is not given here.

Data set [1] has as its target T1, rCRFR1 (Rattus norvegicus, UniProt P35353).
T1 construct: expressed in transfected cells
T1 sequence (P35353 24-415): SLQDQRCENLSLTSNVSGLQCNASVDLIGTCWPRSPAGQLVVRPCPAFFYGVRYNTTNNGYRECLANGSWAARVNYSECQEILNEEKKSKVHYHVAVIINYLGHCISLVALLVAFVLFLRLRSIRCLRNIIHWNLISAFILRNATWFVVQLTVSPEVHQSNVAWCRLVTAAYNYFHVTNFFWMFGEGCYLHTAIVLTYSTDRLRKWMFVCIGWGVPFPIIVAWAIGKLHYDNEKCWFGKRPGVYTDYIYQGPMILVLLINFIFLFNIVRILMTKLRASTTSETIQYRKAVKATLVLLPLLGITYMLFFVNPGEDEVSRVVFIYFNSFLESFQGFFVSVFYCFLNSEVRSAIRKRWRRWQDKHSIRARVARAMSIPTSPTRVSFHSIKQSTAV
Put plainly: Competition binding scintillation proximity assay, rCRFR1 membranes. The settings on record: for selectivity for CRFR1: CRFR1 vs CRFR2, in words. The method, then:
(§1) Crude membrane fractions were prepared from human embryonic kidney (HEK) 293 cells stably expressing either cloned rat CRFR1α(rCRFR1) or mouse CRFR2β (mCRFR2β) as described (20). Rat CRFBP (rCRFBP) was produced in HEK 293 cells stably transfected with cDNA coding for rCRFBP C-terminally fused with a His6 sequence as described (36). The scintillation proximity assays (SPA) for binding analysis of CRFR and CRFBP have been already described in detail (21, 22). For competition binding assays of rCRFR1 and rCRFBP, [^125I-Tyr^0]h/rCRF was used as radiolabeled peptide, whereas [^125I-Tyr^0]Svg was employed for mCRFR2β.

The target of the next data set is T2, mCRFR2β (Mus musculus, UniProt Q60748).
T2 construct: expressed in transfected cells
T2 sequence (Q60748 1-431 isoform Q60748-2): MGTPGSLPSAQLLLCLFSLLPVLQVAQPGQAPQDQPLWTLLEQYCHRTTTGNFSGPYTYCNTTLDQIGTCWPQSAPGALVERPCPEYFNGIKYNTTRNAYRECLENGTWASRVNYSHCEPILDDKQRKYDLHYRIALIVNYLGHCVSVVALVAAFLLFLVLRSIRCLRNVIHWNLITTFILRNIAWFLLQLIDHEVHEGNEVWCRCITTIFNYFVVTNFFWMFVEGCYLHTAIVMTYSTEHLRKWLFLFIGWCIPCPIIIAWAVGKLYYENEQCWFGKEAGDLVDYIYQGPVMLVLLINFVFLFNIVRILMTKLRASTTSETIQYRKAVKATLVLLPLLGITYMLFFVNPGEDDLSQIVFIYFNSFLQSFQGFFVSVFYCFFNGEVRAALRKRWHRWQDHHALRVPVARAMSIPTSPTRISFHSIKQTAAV
Put plainly: Competition binding scintillation proximity assay, mCRFR2β membranes. The settings on record: for affinity for CRFR2: binding analysis, in words. The method, then: as §1
For orientation: In a scintillation proximity assay essentially only radioactivity close to the scintillant gives light.

Data set [2] addresses T1, rCRFR1. Put plainly: Agonist-induced intracellular cAMP accumulation in HEK 293 cells producing rCRFR1. The class given is cell-based. The settings on record: ratio of biological potencies (cAMP). How it is done:
The biological potency of cortagine and OCRF was evaluated by the determination of the EC50 values for agonist-induced intracellular accumulation of cAMP in HEK 293 cells producing either rCRFR1 or mCRFR2β.
The HEK 293 cells were plated into 24 well cell culture plates and stimulated as described (21) using increasing concentrations of the agonists under investigation. Intracellular cAMP was measured with the Biotrak™ cAMP [^125I] SPA system (Amersham Pharmacia Biotech) according to the manufacturer's product manual.

A short description of data set [3]: Maximum solubility in aCSF by amino acid analysis. Format: physicochemical. The settings on record: aCSF, pH 7.4; read-out: maximal solubility cmax. How it is done: After dissolving the peptides in artificial cerebrospinal fluid (aCSF; 124 mM NaCl, 26.4 mM NaHCO3, 10 mM glucose, 3.3 mM KCl, 2.5 mM CaCl2 , 2.4 mM MgSO4 , 1.2 mM KH2PO4) at pH=7.4, the maximum solubility cmax was determined by amino acid analysis as described (21). The isoelectric point of the peptides was determined by isoelectric focusing (IEF) as described (21) with a Bio-Rad IEF cell system using Bio-Rad IEF strips in the pH range 3-10.

Data set [4] is classed as physicochemical. How it is done: A high solubility under physiological conditions is a crucial prerequisite especially for compounds to be injected into the rodent brain. […] Both peptides were soluble in a concentration range of up to 1000 μM (FIG. 6), so that there was no limitation in view of the agonist doses typically used in behavioral experiments. […] Consequently, solutions of cortagine to be used in the pharmacological assays were prepared in phosphate buffered saline (PBS; pH=7.4).

Another data set relates to CRFR1. The settings on record: cited from earlier work.
The target of another data set is T3, rCRFBP (Rattus norvegicus, UniProt P24388).
T3 construct: His6 (C); made in house; host or cells: HEK 293 cells, stably transfected
T3 sequence (P24388 25-322): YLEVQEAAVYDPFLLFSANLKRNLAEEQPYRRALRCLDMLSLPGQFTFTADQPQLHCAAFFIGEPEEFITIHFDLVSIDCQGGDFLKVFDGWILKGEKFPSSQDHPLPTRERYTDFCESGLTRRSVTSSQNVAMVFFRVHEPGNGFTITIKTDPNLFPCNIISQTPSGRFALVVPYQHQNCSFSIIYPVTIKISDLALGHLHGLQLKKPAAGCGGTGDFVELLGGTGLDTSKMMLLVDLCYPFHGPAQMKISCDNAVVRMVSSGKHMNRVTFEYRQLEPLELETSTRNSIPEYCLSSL
Briefly: Competition binding scintillation proximity assay, rCRFBP. The note with it: binding analysis, in words. How it is done: as §1

Another data set concerns C57BL/6J mice. Put plainly: Elevated plus-maze test, intraseptal (i.s.) injection. The settings on record: 400 ng aSvg-30 i.s. 15 min before oCRF. Format: in vivo, mouse. The method, then: Nine-week old male C57BL/6J (Centre D'Elevage Janvier, Sultzfeld, France) were individually housed in macrolon cages according to the recommendations of the Society for Laboratory Animal Science (Germany). All experiments were carried out in accordance with the European Council Directive (86/609/EEC) with the permission of the Animal Protection Law enforced by the District Government of Braunschweig, State of Lower Saxony, Germany, which is in full agreement with the APA ethical guidelines. All efforts were made to minimize animal suffering. The number of mice per group was 9-11.
All peptides were dissolved in aCSF except for the CRFR2-selective antagonist antisauvagine-30 (aSvg-30) (20) that was initially dissolved in 10 mM aqueous acetic acid and diluted with the same volume of two-fold concentrated aCSF. The final pH of the peptide solutions was 7.4. The exact peptide concentration of the injection solutions was determined by amino acid analysis with a Beckman HPLC analyzer system 6300. […]
The elevated plus-maze (EPM) behavior of C57BL/6J mice cannulated in the lateral ventricles or lateral intermediate septal area (23) was investigated 30 min after injection of the CRFR1 agonist under investigation for 5 min in the EPM test (24). […] The behavior of the mice was recorded by a video camera connected to a PC and analyzed by the Technical & Scientific Equipment software VIDEOMOT 2. […]

Turning to “[h/rCRF^1-13]x[Svg^13-29]x[h/rCRF^31-41] (SEEPPISLDLTFHLLRKMIEIEKQEKEKQQAHSNRKLMEII; ends and bridges not checked) [compound 4, chimeric peptide of h/rCRF and Svg domains]”, the “selectivity for CRFR1” value with rCRFR1 [1] (binding analysis) is listed as “not”. Further, the “affinity for CRFR2” value with mCRFR2β is reported as “not”.

“[Svg^1-12 ]x[h/rCRF^14-30]x[Svg^30-40] (QGPPISIDLSLELLREVLEMARAEQLAQQAANNRLLLDTI; not fully specified (residue 1); ends and bridges not checked) [compound 6]”: the “selectivity for CRFR1” value with rCRFR1 [1] (binding analysis) is “selective for CRFR1”. Further, the “affinity for CRFR2” value in the data set with mCRFR2β is “low affinity to CRFR2”.

For the compound “[Ala^41]h/rCRF (SEEPPISLDLTFHLLREVLEMARAEQLAQQAHSNRKLMEIA; ends and bridges not checked; UniProt P06850 154-194, looked up, variant I41A) [h/rCRF analog with Ala in position 41]”, the “selectivity for CRFR1 in comparison to h/rCRF” value with rCRFR1 [1] (binding analysis) is “increase in CRFR1 selectivity by a factor of three”.

For “[h/rCRF^1-30]x[Svg^30-40] (SEEPPISLDLTFHLLREVLEMARAEQLAQQAANNRLLLDTI; ends and bridges not checked) [compound 5, chimeric peptide of h/rCRF and Svg domains]”, the “selectivity for CRFR1” value with rCRFR1 [1] (binding analysis) is listed as “clear selectivity for CRFR1”. In the data set with mCRFR2β, the “affinity for CRFR2” value is recorded as “low affinity”.

Turning to “[Svg^1-29]x[h/rCRF^31-41] (QGPPISIDLSLELLRKMIEIEKQEKEKQQAHSNRKLMEII; ends and bridges not checked) [compound 7, chimeric peptide of h/rCRF and Svg domains]”, the “selectivity for CRFR1” value in the data set with rCRFR1 [1] (binding analysis) was “not”.

Usually solubility stands for the dissolved amount per volume that the medium holds. As for `CC[C@H](C)[C@H](NC(=O)[C@H](CC(=O)O)NC(=O)[C@H](CC(C)C)NC(=O)[C@H](CC(C)C)NC(=O)[C@H](CCCCN)NC(=O)[C@H](CCCNC(=N)N)NC(=O)[C@H](CC(N)=O)NC(=O)[C@H](CO)NC(=O)[C@H](Cc1c[nH]cn1)NC(=O)[C@H](C)NC(=O)[C@H](CCC(N)=O)NC(=O)[C@H](CCC(N)=O)NC(=O)[C@H](C)NC(=O)[C@H](CC(C)C)NC(=O)[C@H](CCC(N)=O)NC(=O)[C@H](CC(=O)O)NC(=O)[C@H](C)NC(=O)[C@H](CCCCN)NC(=O)[C@@H](NC(=O)[C@H](CCSC)NC(=O)[C@H](CCC(=O)O)NC(=O)[C@H](CC(C)C)NC(=O)[C@@H](NC(=O)[C@H](CCC(=O)O)NC(=O)[C@H](CCCNC(=N)N)NC(=O)[C@H](CC(C)C)NC(=O)[C@H](CC(C)C)NC(=O)[C@H](Cc1c[nH]cn1)NC(=O)[C@H](Cc1ccccc1)NC(=O)[C@@H](NC(=O)[C@H](CC(C)C)NC(=O)[C@H](CC(=O)O)NC(=O)[C@H](CC(C)C)NC(=O)[C@H](CO)NC(=O)[C@@H](NC(=O)[C@@H]1CCCN1C(=O)[C@@H]1CCCN1C(=O)[C@H](CCC(=O)O)NC(=O)[C@H](CCC(N)=O)NC(=O)[C@@H](N)CO)[C@@H](C)CC)[C@@H](C)O)C(C)C)[C@@H](C)O)C(=O)N[C@@H](C)C(N)=O` [oCRF, ovine CRF, reference compound], the “CRFR1-selectivity over CRFR2β, IC50(mCRFR2)/IC50(rCRFR1)” value at rCRFR1 [1] (ratio of binding affinities) is recorded as 89. Further, the “CRFR1-selectivity over CRFR2β, EC50(mCRFR2)/EC50(rCRFR1)” value on rCRFR1 [2] was determined as 19. For the same compound, the solubility in data set [3] is not above 1000 µM. In addition, the “solubility in 10 mM aqueous acetic acid” value in data set [4] is reported as “soluble in 10 mM aqueous acetic acid”.

Consider `CCCCN(CC)c1nc(C)nc2c1c(C)cn2-c1c(C)cc(C)cc1C` [CP-154,526], for which the “locomotion in the EPM test” value with CRFR1 is “nonspecific increase in locomotion”.

Turning to `CC[C@H](C)[C@H](NC(=O)[C@@H](NC(=O)[C@H](CC(=O)O)NC(=O)[C@H](CC(C)C)NC(=O)[C@H](CC(C)C)NC(=O)[C@H](CC(C)C)NC(=O)[C@H](CCCNC(=N)N)NC(=O)[C@H](CC(N)=O)NC(=O)[C@H](CC(N)=O)NC(=O)[C@H](C)NC(=O)[C@H](C)NC(=O)[C@H](CCC(N)=O)NC(=O)[C@H](CCC(N)=O)NC(=O)[C@H](CCCCN)NC(=O)[C@H](CCC(=O)O)NC(=O)[C@H](CCCCN)NC(=O)[C@H](CCC(=O)O)NC(=O)[C@H](CCC(N)=O)NC(=O)[C@H](CCCCN)NC(=O)[C@H](CCC(=O)O)NC(=O)[C@@H](NC(=O)[C@H](CCC(=O)O)NC(=O)[C@@H](NC(=O)[C@H](CCSC)NC(=O)[C@H](CCCCN)NC(=O)[C@H](CCCNC(=N)N)NC(=O)[C@H](CC(C)C)NC(=O)[C@H](CC(C)C)NC(=O)[C@H](CCC(=O)O)NC(=O)[C@H](CC(C)C)NC(=O)[C@H](CO)NC(=O)[C@H](CC(C)C)NC(=O)[C@H](CC(=O)O)NC(=O)[C@@H](NC(=O)[C@H](CO)NC(=O)[C@@H](NC(=O)[C@@H]1CCCN1C(=O)[C@@H]1CCCN1C(=O)CNC(=O)[C@@H]1CCC(=O)N1)[C@@H](C)CC)[C@@H](C)CC)[C@@H](C)CC)[C@@H](C)CC)[C@@H](C)O)C(N)=O` [Svg, sauvagine, reference compound], the “selectivity for CRFR1” value on rCRFR1 [1] (binding analysis) was “non-selective”.

On to “[Ala^40] [Svg^1-12]x[h/rCRF^14-30]x[Svg^30-40] [compound 8]”, for which, on rCRFR1 [1] (binding analysis), the “selectivity for CRFR1” value is “highly selective for CRFR1”. Also, the “change in affinity to CRFR1 in comparison to parent peptide” value at rCRFR1 [1] (compound 8 vs compound 6, compound 9 vs compound 8, Nle20 analog vs compound 9) is “more than five-fold increase”. Moreover, at mCRFR2β (compound 8 vs compound 6, compound 9 vs compound 8), the “change in affinity for CRFR2 in comparison to parent peptide” value is “only a slight increase”. Also, at rCRFBP, the “affinity to CRFBP” value was “high affinity”.

Turning to anti-sauvagine-30 [aSvg-30], the “antagonism of anxiogenic effects of 100 ng oCRF” value in the data set on C57BL/6J mice was “completely prevented; also recorded: fully antagonized”.
